Source: patent US12172988B2, “Anticancer and antifungal splice modulators” (priority 2021, dated 2024)
Like-named read-outs stand apart in the source and are kept apart here.

What was measured:
[1] = tested on: HCT116 colorectal carcinoma cells; test: MTS cell viability / cell growth inhibition assay; format: cell-based, human; conditions: for cell growth inhibitory activity compared to FD-895: HCT-116 cells; for GI50: Homo sapiens, HCT-116, 72 h
Method: With milligram quantities of 1a-1i at hand, we began our studies to evaluate the relative efficacy of each analogue using cell growth inhibition studies in HCT116 colorectal carcinoma cells. As reported in FIG. 3, GI50 values were collected for each analog after a 72 h treatment using the MTS cell viability assay (Table 12). Under these conditions, the natural FD-895 (1), 3S-FD-895 (1a) 17S-FD-895 (1d), 17-methoxy-FD-895 (1e) provided activities of <10 nM.
HCT-116 cells was cultured in McCoy's 5a (Life Technologies) supplemented with 10% fetal bovine serum (FBS), 2 mM L-glutamine, and 100 U mL^−1 of penicillin and 100 μg mL^−1 of streptomycin at 37° C. in an atmosphere of 5% CO2. Compounds were dissolved in DMSO (MilliporeSigma). Cells were treated with 1-1j in media with ≥0.5% DMSO for 4-72 h.
Studies were conducted in […] cell culture plates. HCT-116 plated at 5×10^3 cells/well were cultured for 24 h and then treated with analogs 1-1j for 4-72 h, then washed twice with 100 μL PBS. PBS (100 μL) was added to each well, followed by 20 μL of CellTiter Aqueous One Solution (Promega). After 2 h at 37° C., absorbance readings were taken at 490 nm (test wavelength) and 690 nm (reference wavelength). GI50 values were calculated in Prism (GraphPad) using greater 3 replicates.
(§1) Cells were treated with 1 or 1a-1j in media (McCoy's 5a (Life Technologies) supplemented with 10% FBS, 2 mM L-glutamine, and 100 U mL^−1 of penicillin and 100 μg mL^−1 of streptomycin 0.5% DMSO) for 4 h or 24 h. Untreated cells were considered were used as negative control. Total RNA was isolated using mirVana miRNA isolation kit (Life Technologies). A 1 μg sample of RNA was subjected to DNAseI from a TURBO DNA free kit (Life Technologies). The cDNA was prepared by using SuperScript III reverse transcriptase kit (Life Technologies). The amount of unspliced RNA for different genes was determined using Power SYBR Green PCR master mix (Applied Biosystems) by qPCR using specific primers for each gene. qPCR using 2.5 μM of each primer was performed on 5 ng of the obtained cDNA. qPCR conditions were as follows: 95° C. for 10 min for one cycle, then 95° C. for 10 min for one cycle, then 95° C. for 30 s, 55° C. for 60 s, 72° C. for 60 s, for 40 cycles using the MXPro. Quantification cycle (Cq) values were identified for each sample, and then RNA levels were calculated using 2-ΔΔCT method. GAPDH was used as a control for normalization. At least three replicates were conducted for each compound. Namely, all genes explored in this study were evaluated from the same cell cultures. Here, individual cultures were used for each compound explored and at least three replicates were used for each compound. While experimental variation occurred between the different compound treatments, the levels of the different intron retention, exon skipping or RNA expression were collected from the same cellular material. Statistics were calculated using a standard one-way ANOVA; p values were represented so that * signifies p<0.0001. HCT116 were treated with analogs 1-1j ranging from 0.1-5000 nM for 72 hours, then cell viability was measured using the MTS assay. GI50 values and confidence intervals were calculated using GraphPad (Table 12).

PLK-1 = test: qPCR splicing analysis, PLK-1 exon skipping / RNA expression; format: cell-based, human; conditions: HCT116, 4 h, 20 times GI50, qPCR
Method: (§2) HCT116 tumor cells were treated with each analogue at 20 times the G150 value (Table 12) for 4 hours and then cellular RNA was isolated and purified for qPCR. Primers were designed to evaluate intron retention or exon skipping, direct responses to splice modulator treatment. Genes evaluated included those involved in splicing regulation (SF3A1, SF3A3, SF3B1, SF3B2), apoptosis (MCL-1L), protein folding (DNAJB1), and cell cycle regulation (AURKA, PLK-1) relative to the unspliced control GAPDH. For alternative splicing regulator (SF2), primers were designed to evaluate gene expression, which changes in response splice modulator treatment for SF2 relative to the unspliced control GAPDH. (−) denotes untreated cells.
(§3) Next, we turned our efforts to explore the ability of these analogues to modulate splicing. […] We treated cells for 4 h so that we could evaluate early changes in splicing activity, and then cellular RNA was isolated and purified for analyses by qPCR (FIG. 14). Most importantly, none of the concentrations tested led to significant changes in cell viability, ensuring that changes in gene expression were not due to cell death.
(§4) For these studies, we evaluated the expression of genes involved in splicing regulation (SF3A1, SF3A3, SF3B1, SF3B2), apoptosis (MCL-1L), protein folding (DNAJB1), and cell cycle regulation (AURKA, PLK-1) relative to the unspliced control GAPDH. Primers were designed to evaluate intron retention or exon skipping, direct responses to splice modulator treatment. The master splicing regulator alternative splicing factor (SF2) was also evaluated, with the primers for this gene designed to evaluate overall gene expression, which changes in response to splice modulator treatment.
(§5) From this 4 h study (FIG. 14), a small set of analogs (1, 1b, 1g, 1d, 1e, 1i and 1j) were selected to evaluate if effects on splicing when presented for a longer 24 h period. […] Using identical procedures as that used for 4 h, HCT116 cells were treated with three concentrations (100 nM, 250 nM and 500 nM) of each analog for 24 h. Multiple concentrations were used as a means to check further validate the use of the GI50 concentration in our prior study (FIG. 14). As before, none of the concentrations tested led to significant changes in cell viability over the 24-hour time window, ensuring that changes in gene expression were not due to cell death.
Cells were treated with 1 or 1a-1j in media (McCoy's 5a (Life Technologies) supplemented with 10% FBS, 2 mM L-glutamine, and 100 U mL^−1 of penicillin and 100 μg mL^−1 of streptomycin 0.5% DMSO) for 4 h or 24 h. Untreated cells were considered were used as negative control. Total RNA was isolated using mirVana miRNA isolation kit (Life Technologies). A 1 μg sample of RNA was subjected to DNAseI from a TURBO DNA free kit (Life Technologies). […] The amount of unspliced RNA for different genes was determined using Power SYBR Green PCR master mix (Applied Biosystems) by qPCR using specific primers for each gene. qPCR using 2.5 μM of each primer was performed on 5 ng of the obtained cDNA. qPCR conditions were as follows: 95° C. for 10 min for one cycle, then 95° C. for 10 min for one cycle, then 95° C. for 30 s, 55° C. for 60 s, 72° C. for 60 s, for 40 cycles using the MXPro. Quantification cycle (Cq) values were identified for each sample, and then RNA levels were calculated using 2-ΔΔCT method. […] Namely, all genes explored in this study were evaluated from the same cell cultures. […]

SF2 = test: qPCR gene expression of alternative splicing factor SF2; format: cell-based, human; conditions: HCT116, 4 h, 20 times GI50, qPCR
Method: as §2
as §2, with “analogues” for “each analogue”, “100 nM (light grey), 250 nM (grey), or 500 nM (black)” for “20 times the G150 value (Table 12)”, “24 h” for “4 hours”, “(MCL-1L), and” for “(MCL-1L),”, “(DNAJB1),” for “(DNAJB1), and cell cycle regulation (AURKA, PLK-1)”, “(—)” for “(−)”
as §3, §4
From this 4 h study (FIG. 14), a small set of analogs (1, 1b, 1g, 1d, 1e, 1i and 1j) were selected to evaluate if effects on splicing when presented for a longer 24 h period. […] Using identical procedures as that used for 4 h, HCT116 cells were treated with three concentrations (100 nM, 250 nM and 500 nM) of each analog for 24 h. […]

HCT116 tumor cells = test: qPCR structure-splicing profile over the gene panel; format: cell-based, human; conditions: HCT116, 24 h, 100, 250, 500 nM, compared to 1
Method: as §2, with “analogues” for “each analogue”, “100 nM (light grey), 250 nM (grey), or 500 nM (black)” for “20 times the G150 value (Table 12)”, “24 h” for “4 hours”, “(MCL-1L), and” for “(MCL-1L),”, “(DNAJB1),” for “(DNAJB1), and cell cycle regulation (AURKA, PLK-1)”, “(—)” for “(−)”
as §4, §5, §1

[2] = estimated, based on E7107; cited from earlier work
DNAJB1 = test: qPCR splicing analysis, DNAJB1 intron retention; format: cell-based, human; conditions: HCT116, 4 h, 20 times GI50, qPCR relative to GAPDH
Method: as §2
as §2, with “analogues” for “each analogue”, “100 nM (light grey), 250 nM (grey), or 500 nM (black)” for “20 times the G150 value (Table 12)”, “24 h” for “4 hours”, “(MCL-1L), and” for “(MCL-1L),”, “(DNAJB1),” for “(DNAJB1), and cell cycle regulation (AURKA, PLK-1)”, “(—)” for “(−)”
as §3, §4, §5
(§6) Cells were treated with 1 or 1a-1j in media (McCoy's 5a (Life Technologies) supplemented with 10% FBS, 2 mM L-glutamine, and 100 U mL^−1 of penicillin and 100 μg mL^−1 of streptomycin 0.5% DMSO) for 4 h or 24 h. Untreated cells were considered were used as negative control. Total RNA was isolated using mirVana miRNA isolation kit (Life Technologies). […]

SF3A1 = test: qPCR splicing analysis, SF3A1 intron retention; format: cell-based, human; conditions: HCT116, 4 h, 20 times GI50, qPCR relative to GAPDH
Method: as §2
as §2, with “analogues” for “each analogue”, “100 nM (light grey), 250 nM (grey), or 500 nM (black)” for “20 times the G150 value (Table 12)”, “24 h” for “4 hours”, “(MCL-1L), and” for “(MCL-1L),”, “(DNAJB1),” for “(DNAJB1), and cell cycle regulation (AURKA, PLK-1)”, “(—)” for “(−)”
as §3, §4, §5
as §6, with “Technologies). A 1 μg sample of RNA was subjected to DNAseI from a TURBO DNA free kit (Life Technologies). The cDNA was prepared by using SuperScript III reverse transcriptase kit (Life Technologies).” for “Technologies).”

AURKA = test: qPCR splicing analysis, AURKA exon skipping / expression; format: cell-based, human; conditions: HCT116, 4 h, 20 times GI50, qPCR
Method: as §2
Next, we turned our efforts to explore the ability of these analogues to modulate splicing. […] We treated cells for 4 h so that we could evaluate early changes in splicing activity, and then cellular RNA was isolated and purified for analyses by qPCR (FIG. 14). […]
as §4, with “Primers were designed to evaluate intron retention or exon skipping, direct responses to splice modulator treatment.” left out, “treatment. […]” for “treatment.”
Cells were treated with 1 or 1a-1j in media (McCoy's 5a (Life Technologies) supplemented with 10% FBS, 2 mM L-glutamine, and 100 U mL^−1 of penicillin and 100 μg mL^−1 of streptomycin 0.5% DMSO) for 4 h or 24 h. […] The amount of unspliced RNA for different genes was determined using Power SYBR Green PCR master mix (Applied Biosystems) by qPCR using specific primers for each gene. qPCR using 2.5 μM of each primer was performed on 5 ng of the obtained cDNA. qPCR conditions were as follows: 95° C. for 10 min for one cycle, then 95° C. for 10 min for one cycle, then 95° C. for 30 s, 55° C. for 60 s, 72° C. for 60 s, for 40 cycles using the MXPro. […]

SF3B2 = test: qPCR splicing analysis, SF3B2 intron retention; format: cell-based, human; conditions: HCT116, 4 h, 20 times GI50, qPCR relative to GAPDH
Method: as §2
as §2, with “analogues” for “each analogue”, “100 nM (light grey), 250 nM (grey), or 500 nM (black)” for “20 times the G150 value (Table 12)”, “24 h” for “4 hours”, “(MCL-1L), and” for “(MCL-1L),”, “(DNAJB1),” for “(DNAJB1), and cell cycle regulation (AURKA, PLK-1)”, “(—)” for “(−)”
as §3, §4, §5
as §6, with “Technologies). A 1 μg sample of RNA was subjected to DNAseI from a TURBO DNA free kit (Life Technologies). The cDNA was prepared by using SuperScript III reverse transcriptase kit (Life Technologies).” for “Technologies).”

SMILES	cell growth inhibitory activity compared to FD-895 [1]	effect on exon 3 inclusion in PLK-1 (PLK-1)	down regulating the expression of SF2 RNA (SF2)	splicing activity over the genes tested (HCT116 tumor cells)	human maximum tolerated dose (MTD) [2] [mg/m^2]	GI50 ([1]; read-out: GI50 value) [nM]	GI50 ([1]; read-out: GI50 value (text)) [nM]	DNAJB1 intron 2 retention (level of intron retention) (DNAJB1)	SF3A1 intron 6 retention (level of intron retention) (SF3A1)	effect on exon 4 skipping in AURKA (AURKA)	fold less active (GI50) than 1 ([1]; HCT116 cell growth inhibition, compared to 1) [fold]	SF3B2 intron retention (level of intron retention) (SF3B2)
CCC(OC)C(C)C1OC1C(O)C(C)/C=C/C=C(\C)C1OC(=O)CC(O)CCC(C)(O)C(OC(C)=O)/C=C/C1C (centres unmarked) [Analog 1, FD-895, reference compound]	potent cell growth inhibitor	most potent effect	highest efficacy	altered the splicing of many of the genes tested	4							
CC[C@H](OC)[C@@H](C)[C@H]1O[C@@H]1[C@H](O)[C@H](C)/C=C/C=C(\C)[C@H]1OC(=O)C[C@H](O)CC[C@@](C)(O)[C@@H](OC(C)=O)/C=C/[C@@H]1C [Analog 1, FD-895, reference compound]						1.72						
CC[C@H](OC)[C@@H](C)[C@H]1O[C@@H]1[C@H](O)[C@H](C)/C=C/C=C(\C)[C@H]1OC(=O)C[C@@H](O)CC[C@@](C)(O)[C@@H](OC(C)=O)/C=C/[C@@H]1C [Analog 1a, 3S-FD-895]	compromised activity					2.21	< 10	highest level of intron retention	more effective than 1	most potent effect		
CC[C@H](OC)[C@@H](C)[C@H]1O[C@@H]1[C@H](O)[C@H](C)/C=C/C=C(\C)[C@H]1OC(=O)C[C@H](O)CC[C@@](C)(O)[C@H](OC(C)=O)/C=C/[C@@H]1C [Analog 1b, 7R-FD-895]	compromised activity			loss of splicing activity when compared to 1		432					250	improved efficacy
